Paper PMC5431435, “A short artificial antimicrobial peptide shows potential to prevent or treat bone infections” (Scientific Reports, 2017)

Experiments:
[1] = tested on: S. aureus internalized in human primary osteoblast-like cells; experiment: Effect against internalized bacteria; type: cell-based, Staphylococcus aureus; settings: CM with 1% FCS, n = 7
Procedure: Human primary osteoblast-like cells were cultivated in 24-well plates with cultivation medium until they reached a minimum confluence of 80%. For the experiment, cells were washed and S. aureus (ATCC 29213) in cultivation medium added (~2 × 10^7 cfu/ml). After an incubation of 45 minutes, extracellular bacteria were killed using 200 µg/ml gentamicin dissolved in CM with 10% FCS, without P/S. After 1 hour incubation, gentamicin solution was removed, cells washed three times and AMP2 (33 and 67 µg/ml) in CM with only 1% FCS + no P/S added for 4 and 24 hours. As reference, 7.5 µg/ml rifampicin was used. All incubation steps were done in an incubator with 37 °C, 95% humidity and 5% CO2. For determination of the internalized bacteria, cells were lysed and the supernatant plated on CA plates. Experiment were done with n = 7.

S. aureus biofilm = experiment: Biofilm assay by microcalorimetry and plating (MBCB); type: cell-based, Staphylococcus aureus; settings: for inhibition of the biofilm compared to the growth control: MH++, n = 6
Procedure: To confirm MIC of the AMP2 by isothermal microcalorimetry, three different bouillons were tested: Mueller-Hinton II bouillon with adjusted cations (MH^++; BBL, Germany), Mueller-Hinton bouillon with low cations (MH^+; with 3–4 mg/l Ca^2+ and 5–6 mg/l Mg^2+; Oxoid, Germany) and Mueller-Hinton bouillon without cations (MH^−; Merck, Germany). AMP2 concentrations of 2–33 µg/ml were tested with the three different bouillons and gentamicin concentrations of 0.125–2 µg/ml were analyzed with MH^++. Staphylococcus aureus (ATCC 29213, 300 µl with 10^5 cfu/ml) was added to each microcalorimetry glass ampoule (Waters; Germany) containing 3.7 ml of AMP or gentamicin solution of (n = 3). The ampoules were hermetically sealed and heat flow (W) was measured for 24 hours in the calorimeter TAM III (TA Instruments, USA). For the biofilm assay, S. aureus biofilm was grown on glass beads (4 mm diameter, 60 µm pores; ROBU Glasfilter-Geräte, Germany) in MH^++ bouillon at 37 °C in an aerobe atmosphere for 24 hours. After washing with sodium chloride, beads were incubated with AMP2 (133, 267, 533 µg/ml) or daptomycin (128 µg/ml) in MH^++ bouillon for another 24 hours at 37 °C. Beads were washed again and added to the glass ampoule with fresh MH^++ bouillon. The total heat (J) was measured for 48 hours in the calorimeter. A concentration, which inhibits minimum 90% of biofilm, can be defined as the minimal biofilm inhibitory concentration (MICB). All samples were tested with n = 6.
Furthermore, the MBC for biofilms (MBCB) where 99.9% of all bacteria are killed was determined. After measurement, bouillon and glass beads were plated on CA plates and incubated for 24 hours at 37 °C in an aerobe atmosphere.

Sequence: KRRWRIWLV [AMP2, 9mer cationic antimicrobial peptide … from an optimized peptide library]
- internalized bacteria compared to 0 μg/ml AMP [= 100%] ([1]; 33 μg/ml, 4 h): 39%
- internalized bacteria compared to 0 μg/ml AMP [= 100%] ([1]; 33 μg/ml, 24 h): 3%
- internalized bacteria compared to 0 μg/ml AMP [= 100%] ([1]; 67 μg/ml, 4 h): 16%
- internalized bacteria compared to 0 μg/ml AMP [= 100%] ([1]; 67 μg/ml, 24 h): 0.18%
- inhibition of the biofilm compared to the growth control (S. aureus biofilm; 133 µg/ml AMP2, total heat after 48 hours): 13 ± 4%
- inhibition of the biofilm, single samples (S. aureus biofilm; 267 µg/ml AMP2, five of the six samples (the sixth completely killed the bacteria)): 18–38%
- inhibition of the biofilm compared to the growth control (S. aureus biofilm; 267 µg/ml AMP2, total heat after 48 hours): 35 ± 29%
- killing of the biofilm (MBCB determination by plating samples and glass beads) (S. aureus biofilm; 533 µg/ml AMP2, all samples, no growth on agar plates): totally killed
- inhibition of the biofilm compared to the growth control (S. aureus biofilm; 533 µg/ml AMP2, total heat after 48 hours): 97 ± 1%
